Test results published in article PMC2884290 (Neuropsychopharmacology : official publication of the …, 2009).
Where two headings read alike, the source gives them in different places.

What was measured:
mGluR5 [1] = biological target: T1, mGluR5 (Rattus norvegicus, UniProt P31424); assay: PI hydrolysis in rat hippocampal slices
mGluR5 [2] = biological target: T1, mGluR5; type: cell-based

T1 sequence (P31424 21-1203): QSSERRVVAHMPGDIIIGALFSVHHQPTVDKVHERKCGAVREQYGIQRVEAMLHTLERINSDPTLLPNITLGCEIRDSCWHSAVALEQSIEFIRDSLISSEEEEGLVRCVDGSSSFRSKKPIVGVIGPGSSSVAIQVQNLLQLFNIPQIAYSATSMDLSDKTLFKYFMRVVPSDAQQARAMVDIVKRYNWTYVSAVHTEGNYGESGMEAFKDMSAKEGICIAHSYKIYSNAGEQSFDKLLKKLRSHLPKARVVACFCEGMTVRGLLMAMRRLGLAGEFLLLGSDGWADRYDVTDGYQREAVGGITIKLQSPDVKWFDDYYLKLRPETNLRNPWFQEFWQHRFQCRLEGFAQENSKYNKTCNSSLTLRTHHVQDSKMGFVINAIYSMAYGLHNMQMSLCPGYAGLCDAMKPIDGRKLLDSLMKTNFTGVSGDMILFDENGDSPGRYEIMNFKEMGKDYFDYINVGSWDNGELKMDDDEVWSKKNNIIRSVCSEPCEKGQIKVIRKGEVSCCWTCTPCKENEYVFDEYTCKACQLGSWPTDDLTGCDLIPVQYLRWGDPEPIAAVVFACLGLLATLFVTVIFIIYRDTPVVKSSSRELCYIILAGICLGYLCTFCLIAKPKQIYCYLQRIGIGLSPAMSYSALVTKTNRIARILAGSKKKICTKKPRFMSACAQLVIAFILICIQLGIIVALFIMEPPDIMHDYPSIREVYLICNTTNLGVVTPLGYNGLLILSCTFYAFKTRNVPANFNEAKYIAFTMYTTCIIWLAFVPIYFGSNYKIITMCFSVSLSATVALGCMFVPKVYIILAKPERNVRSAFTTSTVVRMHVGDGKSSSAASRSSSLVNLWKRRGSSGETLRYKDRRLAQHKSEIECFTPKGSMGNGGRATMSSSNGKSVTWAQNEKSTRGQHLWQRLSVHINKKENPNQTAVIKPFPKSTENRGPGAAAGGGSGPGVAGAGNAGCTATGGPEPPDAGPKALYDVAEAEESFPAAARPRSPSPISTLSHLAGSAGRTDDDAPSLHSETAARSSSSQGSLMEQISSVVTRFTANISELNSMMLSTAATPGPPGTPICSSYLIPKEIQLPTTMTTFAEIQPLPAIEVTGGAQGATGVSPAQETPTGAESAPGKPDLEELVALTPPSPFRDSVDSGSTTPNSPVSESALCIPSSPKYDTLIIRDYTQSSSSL

SMILES	EC50 (mGluR5 [1]) [µM]	EC50 (mGluR5 [2]) [µM]
NC(C(=O)O)c1cc(O)cc(O)c1 (centres unmarked) [DHPG]	8 ± 1.6	–
O=C(c1ccc(F)cc1)N1CCC[C@H](c2nc(-c3ccc(F)cc3)no2)C1 [ADX47273]	–	0.108 ± 0.041
